Consider four compounds from US20160123957A1, “Visualization of P-TEFb by Fluorescence Complementation” (The Regents of the University of California, priority 2014, published 2016).

Where only a bound is given, the exact number is not on record here.

One assay deals with P-TEFb. Nature of the assay: BiFC assay, YC.P-TEFb coexpressed with YN.CTD in HEK293 cells. Type of assay: cell-based. The conditions noted are these: for number of YFP-positive cells: versus normal culture conditions. The text has this: Sequences encoding amino acids 1-154 (YN) and 155-238 (YC) of YFP were amplified and cloned in mammalian expression plasmids. The YN.CTD chimera was constructed by inserting DNA fragments from a 52X heptapeptide (52 X SEQ ID NO: 4 (SEQ ID NO: 7)) CTD coding plasmid with a linker sequence encoding a nuclear localization signal, SEQ ID NO: 5. The YC.PTEFb chimera was constructed by inserting DNA fragments corresponding to P-TEFb into the YC plasmid, with Cdk9 and CycT1 sequences genetically fused to express as a single chimeric polypeptide, that can form a functional P-TEFb molecule. A polynucleotide coding for the linker of SEQ ID NO: 6 was optionally utilized in the constructs, between P-TEFb or CTD sequences and their associated fluorophores fragments. All proteins contained an anti-c-Myc antibody epitope tag at the N termini, and their expression in cells was confirmed by Western blotting using an anti-c-Myc antibody.
(§1) HeLa or HEK293 cells growing in log phase were transfected with plasmid DNA encoding YN.CTD and YC.P-TEFb fusion proteins by use of a lipofection agent. Incorporation of YC.P-TEFb into the 7SK snRNP was confirmed by immunoprecipitation and Western blot analysis with antibodies to the components of the 7SK snRNP.
The BiFC assay was used to detect interactions between released free P-TEFb and its natural substrate, RNA polymerase II CTD. When YC.P-TEFb was coexpressed with YN.CTD in HEK293 cells under normal culture conditions, very few weakly YFP-positive cells were detected. […] Because the emission peak of YFP (527 nm) is similar to that of GFP (509 nm), the BiFC-positive cells appeared green. […] YC.P-TEFb was employed to monitor P-TEFb activation by BiFC in cells.
A time-dependent increase in BiFC signals was monitored by time-lapse fluorescence microscopic analysis. HEK293 cells expressing YC.P-TEFb and YN.CTD were treated with 5 micromolar SAHA, and fluorescent images were taken every 3 min. BiFC signals were detected by 30 min after the addition of SAHA and reached a peak at a time point between 75 and 90 min. At later times, more intense and punctate nuclear staining reflected the accumulation of active P-TEFb in nuclear speckles. This finding is consistent with previous observations of P-TEFb release by SAHA with a consideration of the time required for maturation of the fluorophore.

In the next assay the test system is 7SK snRNP. Put plainly: Immunoprecipitation and Western blot of 7SK snRNP fractions in cells expressing YC.P-TEFb. Type of assay: cell-based. The following applies: HeLa or HEK293 cells, SAHA treatment.
Excerpt: as §1

Turning to `Nc1ncn([C@@H]2O[C@H](CO)[C@@H](O)[C@H]2O)c(=O)n1` [AzaC], in the assay with P-TEFb (time-lapse fluorescence microscopy), the “time-dependent increase in BiFC signals (P-TEFb release)” value was “released P-TEFb”.

For the compound `CC(=O)NCCCCCCNC(C)=O` [HMBA], the “number of YFP-positive cells” value in the assay on P-TEFb is “increased significantly”.

Regarding `O=C(CCCCCCC(=O)Nc1ccccc1)NO` [SAHA], in the assay with 7SK snRNP, the “amounts of YC.P-TEFb and endogenous CycT1 proteins in 7SK snRNP fractions” value is “reduced”; the “levels of free P-TEFb” value is “increased”. The “time at which BiFC signals were detected after addition” value with P-TEFb (5 micromolar, time-lapse fluorescence microscopy, images every 3 min) is on record as at most 30 min. The “number of YFP-positive cells” value in the assay on P-TEFb is recorded as “increased significantly”.

As for `CN1CCc2c(c3ccccc3n2Cc2ccc(C(=O)NO)cc2)C1` [tubastatin A], the “number of YFP-positive cells” value with P-TEFb was “did not increase”.
